Series [1] relates to J774 macrophages. Briefly: Cytotoxicity to J774 macrophages (Alamar Blue). The format is cell-based. The following applies: 72 h, read-out: CC50 (µM) JJ74. The protocol:
J774 macrophages were seeded into 96-well plates at a cell density of 1 × 10^4 cells/well in a DMEM medium supplemented with 10% fetal bovine serum (FBS; GIBCO) and 50 µg/mL of gentamicin (Life Technologies, Carlsbad, CA, USA) and incubated for 24 h at 37 °C and 5% CO2. After that time, each compound was added in six concentrations (50–1.56 µM), in triplicate, and incubated for 72 h. At the end of treatment, 20 µL/well of Alamar Blue (Invitrogen) was added to the plates for 4 h. […]
As a positive control, gentian violet was used at concentrations ranging from 0.04 to 10 µM. CC50 values were calculated using data from three independent experiments.
To determine the cytotoxicity concentration of 50% of J774 macrophages (CC50), we used non-linear regression. One-way analysis of variance and Newman–Keuls multiple comparison tests were employed by using Graph Pad Prism version 8.0.1 (Graph Pad Software; San Diego, CA, USA). Differences were considered significant when the values of p were < 0.05. The data are representative of at least two or three experiments.
A general note: The colour change of resazurin is a common sign of viable cells or microbes.

Series [2] concerns nitric oxide production. The series is described as follows: Inhibition of nitric oxide (nitrite) production in J774 macrophages stimulated with LPS + IFN-γ (Griess). The following applies: for Inhibition of NO (%) Production at 40 μM: 24 h incubation with compounds and LPS plus IFN-γ. The format is cell-based. As to the method:
(§1) Immortalized J774 macrophages (2 × 10^5 cells/well) or peritoneal macrophages (2 × 10^5 cells/well) were incubated in 96-well plates in a DMEM medium supplemented with 10% FBS and 50 µg/mL of gentamicin, in triplicate, stimulated or not with LPS (500 ng/mL) and IFN-γ (5 ng/mL), and treated or not with different concentrations of the evaluated ferrocenyl-N-acyl hydrazones. The cells were incubated for 4 or 24 h at 37 °C and 5% CO2. Cell-free supernatants were collected after 4 h (for TNFα measurement) and 24 h (for IL-1β, TNFα, and nitrite quantifications), and kept at −80 °C until use.
(§2) The dosage of cytokines IFN-γ, IL-1β, IL-2, IL-4, and TNFα was performed from the supernatant of peritoneal macrophages or splenocytes were determined by enzyme-linked immunosorbent assay (ELISA), using DuoSet kits from R&D Systems, according to the manufacturer’s instructions. Nitric oxide production was estimated in macrophage culture supernatants harvested at 24 h using the Griess method for nitrite quantification.
A general note: Griess reagent forms a coloured azo dye with nitrite.

In series [3] the test system is peritoneal macrophages. Briefly: Cytotoxicity to peritoneal macrophages activated with LPS + IFNγ (Alamar Blue). Type of series: cell-based, BALB/c mice. The protocol:
The second set of experiments was performed using peritoneal macrophages activated with LPS (500 ng/mL, Sigma-Aldrich) and IFNγ (5 ng/mL; Sigma-Aldrich).
Peritoneal exudate macrophages were obtained by washing, with a cold DMEM medium, the peritoneal cavity of BALB/c mice 4–5 days after injection of 3% thioglycolate (Sigma-Aldrich) in saline (1.5 mL per mouse). Cells were seeded into 96-well plates at a cell density of 1 × 10^5 cells/well in a DMEM medium supplemented with 10% FBS and 50 µg/mL of gentamicin and incubated for 24 h at 37 °C and 5% CO2. […] At the end of treatment, 20 µL/well of Alamar Blue (Invitrogen) were added to the plates for 10 h. Colorimetric readings were performed at 570 and 600 nm using a SpectraMax 190 Microplate Reader (Molecular Devices, Sunnyvale, CA, USA).

Series [4] relates to nitrite production. Briefly: Nitrite production by activated peritoneal macrophages (Griess). Type of series: cell-based, BALB/c mice. The following applies: LPS + IFN-γ. The protocol:
as §1, §2

In series [5] the test system is TNFα. The series is described as follows: TNFα production by peritoneal macrophages stimulated with LPS + IFN-γ (ELISA). The format is cell-based, BALB/c mice. As to the method:
as §1, §2
(In general: An ELISA detects its analyte on a solid surface through an enzyme-linked reagent.)

Series [6] has as its system IL-1β. Briefly: IL-1β production by peritoneal macrophages stimulated with LPS + IFN-γ (ELISA). Type of series: cell-based, BALB/c mice. The protocol: as §1, §2
For series [7], the system named is IL-2. The series is described as follows: IL-2 production by splenocytes stimulated with concanavalin A (ELISA). The following applies: Con A 5 µg/mL, 24 h. Type of series: cell-based, BALB/c mice. The protocol: (§3) BALB/c splenocyte suspensions were prepared in a DMEM medium supplemented with FBS and gentamicin. Splenocytes (5 × 10^6 cells/well) were plated in 24-well plates, in triplicate, and stimulated or not with concanavalin A (Con A; 5 µg/mL, Sigma-Aldrich). To evaluate lymphocyte function, splenocytes were activated in the absence or presence of various concentrations of SintMed149 and SintMed150 (10, 20, and 40 µM). After 24 h of treatment, cell-free supernatants were collected and kept at −80 °C until use.
as §2

The test system of series [8] is IL-4. Briefly: IL-4 production by splenocytes stimulated with concanavalin A (ELISA). The format is cell-based, BALB/c mice. The following applies: Con A 5 µg/mL, 24 h. The protocol:
as §3, §2

In series [9] the test system is IFN-γ. Briefly: IFN-γ production by splenocytes stimulated with concanavalin A (ELISA). The format is cell-based, BALB/c mice. The following applies: 10 µM; Con A 5 µg/mL; 24 h. The protocol:
as §3, §2

Series [10] concerns LPS-induced endotoxic shock. The series is described as follows: LPS-induced endotoxin shock (survival). The following applies: 25 mg/kg, lethal LPS, monitored 4 days. The format is in vivo, BALB/c mice. As to the method:
Groups of five male BALB/c mice (4 weeks of age) were used for the LPS lethality assays. Mice were treated with different doses of SintMed150 (50 or 100 mg/kg), dexamethasone (25 mg/kg), or vehicle (solution containing 30% sorbitol, 10% Tween 80, and 60% saline), by intraperitoneal (i.p.) route. Ninety minutes later, animals were challenged with 600 µg of LPS (from serotype 0111:B4 Escherichia coli, Sigma-Aldrich) in saline, by i.p. route. The survival rate was then monitored daily during 4 days.

Series [11] concerns carrageenan-induced acute peritonitis. Briefly: Carrageenan-induced acute peritonitis (neutrophil migration). Type of series: in vivo, BALB/c mice. The following applies: 25 mg/kg; compared to vehicle. The protocol:
Next, animals were challenged with a 250 μL injection of carrageenan (1 mg/mL; intraperitoneal route). After 4 h, animals were euthanized and peritoneal exudates were harvested by peritoneal lavage using 2.5 mL of saline solution. Cells were centrifuged at 400× g for 10 min, at 4 °C. The pellet was resuspended in saline (1 mL). Total leukocytes in the peritoneal fluid were determined in a Neubauer chamber after dilution in Trypan blue stain. Differential counting of neutrophils was carried out in rapid panotype-stained cytospin preparations. A differential count of 300 cells was made in a blinded fashion and according to standard morphologic criteria.

As for `O=C(N/N=C/[c-]1cccc1)c1ccccc1Cl.[Fe+2].c1cc[cH-]c1` [SintMed142, (E)-N′-(Ferrocenylmethylidene)-2-chlorobenzohydrazide], in [1], the CC50 is above 50 µM. Further, the “Inhibition of NO (%) Production at 40 μM” value in series [2] was 49.3 (±0.8) %.

In the case of `O=C(N/N=C/[c-]1cccc1)c1ccccc1.[Fe+2].c1cc[cH-]c1` [SintMed141, (E)-N′-(Ferrocenylmethylidene)benzohydrazide], the CC50 in [1] is above 50 µM. Besides, the “Inhibition of NO (%) Production at 40 μM” value in series [2] is given as 19.7 (±3.0) %.

In the case of `O=C(N/N=C/[c-]1cccc1)c1cccc(Cl)c1.[Fe+2].c1cc[cH-]c1` [SintMed154, (E)-N′-(Ferrocenylmethylidene)-3-chlorobenzohydrazide], the cytotoxic concentration (CC50) in [1] is above 50 µM. Moreover, the “Inhibition of NO (%) Production at 40 μM” value in [2] was 45.2 (±2.1) %.

Consider `O=C(N/N=C/[c-]1cccc1)c1ccc(C(F)(F)F)cc1.[Fe+2].c1cc[cH-]c1` [SintMed147, (E)-N′-(Ferrocenylmethylidene)-4-(trifluoromethyl)benzohydrazide], for which, in [1], the CC50 was above 50 µM. In addition, the “Inhibition of NO (%) Production at 40 μM” value in series [2] is listed as 59.9 (±0.3) %.

As to `O=C(N/N=C/[c-]1cccc1)c1cccc2ccccc12.[Fe+2].c1cc[cH-]c1` [SintMed155, (E)-N′-(Ferrocenylmethylidene)-1-naphtylcarbohydrazide], the CC50 in series [1] is above 50 µM. For the same compound, the “Inhibition of NO (%) Production at 40 μM” value in series [2] was 35.6 (±0.7) %.

For the compound `N#Cc1ccc(C(=O)N/N=C/[c-]2cccc2)cc1.[Fe+2].c1cc[cH-]c1` [SintMed144, (E)-N′-(Ferrocenylmethylidene)-4-cyanobenzohydrazide], the CC50 in series [1] was above 50 µM. Besides, the “Inhibition of NO (%) Production at 40 μM” value in series [2] was 55.2 (±0.6) %.

For `CC(C)(C)c1cc(C(=O)N/N=C/[c-]2cccc2)cc(C(C)(C)C)c1O.[Fe+2].c1cc[cH-]c1` [SintMed146, (E)-N′-(Ferrocenylmethylidene)-3,5-tert-butyl-4-hydroxybenzohydrazide], the CC50 in series [1] was above 50 µM. Further, in series [2], the “Inhibition of NO (%) Production at 40 μM” value is 14.4 (±2.2) %.

`O=C(N/N=C/[c-]1cccc1)c1ccco1.[Fe+2].c1cc[cH-]c1` [SintMed143, (E)-N′-(Ferrocenylmethylidene)furan-2-ylcarbohydrazide]: the CC50 in series [1] is above 50 µM. Besides, in series [2], the “Inhibition of NO (%) Production at 40 μM” value is 49.2 (±1.9) %.

Regarding `O=C(N/N=C/[c-]1cccc1)c1ccccc1Br.[Fe+2].c1cc[cH-]c1` [SintMed149, (E)-N′-(Ferrocenylmethylidene)-2-bromobenzohydrazide], the CC50 in [1] was above 50 µM. The “Inhibition of NO (%) Production at 40 μM” value in series [2] is 71.7 (±3.6) %. Besides, the “Cytotoxicity (cell viability) in peritoneal macrophages” value in series [3] (all concentrations tested (10, 20, 40 µM)) was “not cytotoxic”. Further, the Nitrite production result in [4] (10, 20 and 40 µM, p < 0.05) is reported as “inhibited, in a concentration-dependent manner”. For the same compound, the TNF production entry in [5] (10, 20 and 40 µM, 4 h, p < 0.05) is on record as “inhibitory effect”. In series [6] (10, 20 and 40 µM, 24 h, p < 0.05), the IL-1β production result was “inhibitory effect”. Also, the IL-2 levels entry in series [7] (10, 20, 40 µM) was “significant and concentration-dependent reduction”. Also, the IL-4 levels result in series [8] (10, 20, 40 µM) is “did not significantly reduce”.

On to `O=C(N/N=C/[c-]1cccc1)c1cc(O)c(O)c(O)c1.[Fe+2].c1cc[cH-]c1` [SintMed151, (E)-N′-(Ferrocenylmethylidene)-3,4,5-trihydroxybenzohydrazide], for which the CC50 in series [1] is above 50 µM. Besides, in [2], the “Inhibition of NO (%) Production at 40 μM” value is listed as 25.2 (±2.1) %.

Turning to `C[C@@H]1C[C@H]2[C@@H]3CCC4=CC(=O)C=C[C@]4(C)[C@@]3(F)[C@@H](O)C[C@]2(C)[C@@]1(O)C(=O)CO` [Dexamethasone, reference compound], the inhibition at 40 µM in series [2] (Mus musculus, J774, 24 h incubation with compounds and LPS plus IFN-γ, read-out: Inhibition of NO (%) Production at 40 μM) is 64.9%. In addition, in [3] (40 µM), the “Cytotoxicity (cell viability) in peritoneal macrophages” value is on record as “not cytotoxic”. For the same compound, the Nitrite production entry in series [4] (10 µM) is recorded as “promoted the reduction”. Moreover, in [5] (10 µM), the TNF production entry is reported as “promoted the reduction”. Besides, the IL-1β production entry in series [6] (10 µM) is on record as “promoted the reduction”. In addition, the IL-2 levels result in series [7] (10 µM) is “significantly reduced”. The IL-4 levels result in series [8] (10 µM) is listed as “significantly reduced”. Besides, in series [9], the IFN-γ levels entry is “significantly reduced”. The Survival rate in series [10] came to 83.3%. Moreover, the “Reduction in neutrophil migration” value in series [11] was 55%.

In the case of `COc1cc(C(=O)N/N=C/[c-]2cccc2)cc(OC)c1OC.[Fe+2].c1cc[cH-]c1` [SintMed152, (E)-N′-(Ferrocenylmethylidene)-3,4,5-trimethoxybenzohydrazide], in [1], the CC50 was above 50 µM. In addition, the “Inhibition of NO (%) Production at 40 μM” value in series [2] was 55.5 (±1.7) %.

Regarding `COc1ccc(C(=O)N/N=C/[c-]2cccc2)c(OC)c1.[Fe+2].c1cc[cH-]c1` [SintMed156, (E)-N′-(Ferrocenylmethylidene)-2,4-dimethoxybenzohydrazide], the CC50 in [1] was above 50 µM. Also, the “Inhibition of NO (%) Production at 40 μM” value in series [2] is recorded as 46.7 (±3.0) %.

On to `O=C(N/N=C/[c-]1cccc1)c1ccc2ccccc2n1.[Fe+2].c1cc[cH-]c1` [SintMed145, (E)-N′-(Ferrocenylmethylidene)quinolin-2-ylcarbohydrazide], for which the CC50 in series [1] was above 50 µM. Further, in series [2], the “Inhibition of NO (%) Production at 40 μM” value was 49.6 (±2.6) %.

Regarding `Cc1ccccc1C(=O)N/N=C/[c-]1cccc1.[Fe+2].c1cc[cH-]c1` [SintMed148, (E)-N′-(Ferrocenylmethylidene)-2-methylbenzohydrazide], the CC50 in [1] was above 50 µM. The “Inhibition of NO (%) Production at 40 μM” value in series [2] is reported as 56.6 (±2.1) %.

Take `COc1cc(C(=O)N/N=C/[c-]2cccc2)cc(OC)c1OC.[Fe+2].c1cc[cH-]c1` [SintMed153, (E)-N′-(Ferrocenylmethylidene)-3,4,5-trimethoxybenzohydrazide]: the CC50 in series [1] was above 50 µM. The “Inhibition of NO (%) Production at 40 μM” value in [2] is 43.7 (±3.3) %.

Usually CC50 stands for the concentration that lowers cell viability or growth by half. As a reminder, the inhibition is the change of the read-out against control, counted positive when it falls.

The values above are taken from PMC9737981, “Molecular Hybridization Strategy on the Design, Synthesis, and Structural Characterization of Ferrocene-N-acyl Hydrazones as Immunomodulatory Agents” (Molecules, 2022).
